This is an account of results in ChEMBL document CHEMBL1201862, “PubChem BioAssay data set” (2004).

Structures are written as SMILES.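 Cultured in 96-well plates, cells were exposed to test compound for 48 hours across five concentrations. GI50: concentration for 50% inhibition of growth.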 Active and inactive are the calls of the source. Cut-off read from the data, not from the text of the source: active = GI50 up to about 1.1 µM and inactive = higher.

Among the test systems are COLO 205; HCC 2998; MCF7; RPMI-8226; SN12C; HT-29; M14; K562; Malme-3M; SK-MEL-28; Hs-578T; LOX IMVI; T47D; SF-539; UO-31; CAKI-1; SK-MEL-5; SK-OV-3; HOP-92; OVCAR-5.
Common to all, as to assay: NCI-60 cell line screen, 48 h

Regarding `CC(C)(Cl)C(Cl)CC/C(CBr)=C(\Cl)CBr` (stereo not given), the GI50 in the experiment on COLO 205 was 2620 nM (inactive); in the experiment with HCC 2998, 9680 nM (inactive); in the experiment with MCF7, 2490 nM (inactive); in the experiment with RPMI-8226, 706 nM (active); in the experiment on SN12C, 2450 nM (inactive); in the experiment on HT-29, 2840 nM (inactive). In addition, the GI50 with M14 was 1600 nM (inactive); in the experiment on K562, 586 nM (active); in the experiment with Malme-3M it was 2110 nM (inactive); with SK-MEL-28 it was 2030 nM (inactive); with Hs-578T, 1850 nM (inactive); in the experiment on LOX IMVI, 209 nM (active). In addition, the GI50 in the experiment with T47D was 1960 nM (inactive); with SF-539 it was 2400 nM (inactive); in the experiment with UO-31 it was 3080 nM (inactive); with CAKI-1 it was 2620 nM (inactive); in the experiment with SK-MEL-5, 1790 nM (inactive); in the experiment on SK-OV-3 it was 4310 nM (inactive). Moreover, the GI50 is 1750 nM (inactive) in the experiment with HOP-92 and 2290 nM (inactive) in the experiment on OVCAR-5.
`CSc1nc(Cl)c2c(n1)Sc1nc3ccccc3n1C2O` (stereo not given): the GI50 is 2640 nM (inactive) with COLO 205; 3910 nM (inactive) in the experiment with HCC 2998; 4020 nM (inactive) in the experiment with MCF7; 2850 nM (inactive) in the experiment with RPMI-8226; 4850 nM (inactive) in the experiment with SN12C; 3520 nM (inactive) in the experiment on HT-29. Also, the GI50 in the experiment with M14 is 3460 nM (inactive); in the experiment with K562 it was 3710 nM (inactive); in the experiment with Malme-3M, 4910 nM (inactive); in the experiment with SK-MEL-28, 6790 nM (inactive); with Hs-578T, 5360 nM (inactive); with LOX IMVI, 861 nM (active). The GI50 is 15300 nM (inactive) in the experiment on T47D; 1830 nM (inactive) with SF-539; 3440 nM (inactive) in the experiment on UO-31; 1850 nM (inactive) with CAKI-1; 2500 nM (inactive) with SK-MEL-5; 47900 nM (inactive) in the experiment with SK-OV-3. For the same compound, the GI50 in the experiment on HOP-92 is 5310 nM (inactive); in the experiment on OVCAR-5, 4920 nM (inactive).
For `O=C(C=P(c1ccccc1)(c1ccccc1)c1ccccc1)c1cccc(-c2cccc([N+](=O)[O-])c2)c1`, the GI50 in the experiment with COLO 205 was 1530 nM (inactive); with HCC 2998, 3270 nM (inactive); in the experiment with MCF7 it was 3470 nM (inactive); in the experiment on RPMI-8226, 1980 nM (inactive); in the experiment on SN12C, 2970 nM (inactive); in the experiment with HT-29, 1800 nM (inactive). Besides, the GI50 was 3130 nM (inactive) with M14; 2990 nM (inactive) in the experiment with K562; 2860 nM (inactive) in the experiment with Malme-3M; 3100 nM (inactive) with SK-MEL-28; 3440 nM (inactive) in the experiment with Hs-578T; 2560 nM (inactive) in the experiment with LOX IMVI. In addition, the GI50 in the experiment on T47D is 4900 nM (inactive); in the experiment with SF-539, 4560 nM (inactive); with UO-31, 3110 nM (inactive); with CAKI-1, 1860 nM (inactive); with SK-MEL-5, 2370 nM (inactive); with SK-OV-3 it was 2860 nM (inactive). For the same compound, the figures for the GI50 in the experiment with HOP-92 and in the experiment on OVCAR-5 were 1320 nM (inactive) and 3100 nM (inactive), respectively.
